The text below walks through data of patent US20230210110A1, “METHOD FOR INDUCING ENVIRONMENTAL STRESS TOLERANCE IN PLANTS” (AJINOMOTO CO., INC., priority 2020, published 2023).

A value given as a limit tells only on which side of the number the result lay.

The subject of one experiment is RD29B and MAPKKK18. Nature of the experiment: Effect of Lys derivatives and nitrogen-containing compounds on induction of environmental stress tolerance genes by ABA (activity level). The settings on record: 1 mM compound with 0.25 μM ABA. It is filed as in vivo, Arabidopsis thaliana. As to the method:
(§1) Four to six young Arabidopsis thaliana plants grown on a 50% concentration MS (Murashige-Skoog) agar medium were transferred to a 6-well plate containing a 50% concentration MS (Murashige-Skoog) liquid medium and pre-cultured for 16 hours, then added with a treatment solution containing each amino acid alone or a treatment solution containing a combination of each amino acid and ABA, and left for 6 hours. Then, RNA was then isolated from the plants with a nucleic acid purification kit (Promega, Maxwell (registered trademark) 16 LEV simplyRNA Tissue Kit). Then, cDNA was synthesized with a cDNA synthesis reagent for real-time PCR (Toyobo, ReverTra Ace (registered trademark) qPCR RT Master Mix).
GAPDH is a glyceraldehyde-3-phosphate dehydrogenase gene and was selected as an internal standard.
Lys or each Lys derivative is used for treatment at 1 mM and ABA at 0.25 μM.
On to `CC(C)(C)OC(=O)NCCCC[C@H](N)C(=O)OC(C)(C)C` [compound 28], for which the “effect on the gene expression inducing activity of ABA” value was “no effect”. Still for that read-out and setting: the same measure for `CC(C)(C)OC(=O)[C@@H](N)CCCCNC(=O)OCc1ccccc1` [compound 25]: “no effect”; for `N[C@@H](CCCCNC(=O)OCc1ccccc1)C(=O)O` [compound 11]: “no effect”.

For `COC(=O)[C@@H](N)CCCCN` [compound 7], the “effect on the gene expression inducing activity of ABA” value is “no effect”.

The same experiment, now with this note: total of induction activities of RD29B and MAPKKK18 with 1 mM compound and 0.25 μM ABA, relative to ABA alone taken as 1; >1 enhanced, 1 no effect, <1 suppressed.
With `CC(C)(C)OC(=O)NCCCC[C@H](NC(=O)OC(C)(C)C)C(=O)O` [compound 37], the Activity level is given as above 1. For the molecule `N[C@@H](CCCCNC(=O)c1ccccc1)C(=O)O` [compound 9], the Activity level is below 1. Still for that read-out and setting: the same measure for `CC(C)(C)OC(=O)NCCCC[C@H](N)C(=O)OC(C)(C)C` [compound 28]: 1; for `CC(C)(C)OC(=O)NC[C@H](NC(=O)OCc1ccccc1)C(=O)O` [compound 19]: above 1; for `N[C@H](CCCCNC(=O)c1ccccc1)C(=O)O` [compound 10]: below 1.

With `CN(C)CCCC[C@H](N)C(=O)O` [compound 14], the Activity level was above 1.

In the case of `N[C@@H](CCCCNC(=O)OCc1ccccc1)C(=O)OCc1ccccc1` [compound 26], the Activity level is below 1.

For `CC(=O)N[C@@H](CCCCN)C(=O)O` [compound 15], the Activity level is on record as below 1. Still for that read-out and setting: under `COC(=O)[C@H](CCCCNC(=O)OC(C)(C)C)NC(=O)OCc1ccccc1` [compound 29] stands above 1; under `O=C(N[C@@H](CCCCNC(=O)c1ccccc1)C(=O)O)OCc1ccccc1` [compound 35], above 1. Same read-out and setting: the same measure for `O=C(NCCCCCNC(=O)c1ccccc1)c1ccccc1` [II-2]: above 1; for `O=C(NCCCC[C@H](NC(=O)OCC1c2ccccc2-c2ccccc21)C(=O)O)OCC1c2ccccc2-c2ccccc21` [compound 42]: above 1; for `O=C(NCCCC[C@@H](NC(=O)OCc1ccccc1)C(=O)O)OCc1ccccc1` [compound 34]: above 1. Take `COC(=O)[C@H](CCCCN)NC(=O)OCc1ccccc1` [compound 22]: the Activity level is above 1. The same measure, in the same setting: under `CC(C)(C)OC(=O)N[C@@H](CCCCNC(=O)OCC1c2ccccc2-c2ccccc21)C(=O)O` [compound 40] stands above 1. Still for that read-out and setting: under `O=C(NCCCC[C@H](NC(=O)OCc1ccccc1)C(=O)O)OCc1ccccc1` [compound 33] stands above 1; under `Cc1cccc(OCC(=O)NCCCC[C@H](NC(=O)COc2cccc(C)c2)C(=O)O)c1` [compound 44], above 1; under `CC(C)(C)OC(=O)NCC[C@H](NC(=O)OCc1ccccc1)C(=O)O` [compound 20], above 1. Turning to `O=C(NCCC[C@H](NC(=O)OCc1ccccc1)C(=O)O)OCc1ccccc1` [compound 18], the Activity level is on record as above 1.

Consider `CC(C)(C)OC(=O)N[C@@H](CCCCNC(=O)OCc1cccc(Cl)c1)C(=O)O` [compound 36], for which the Activity level is recorded as above 1. Same read-out and setting: under `Cc1ccc(C(NCCCC[C@H](NC(=O)OCC2c3ccccc3-c3ccccc32)C(=O)O)(c2ccccc2)c2ccccc2)cc1` [compound 43] stands above 1; under `COC(=O)[C@@H](N)CCCCNC(=O)OC(C)(C)C` [compound 27], above 1; under `O=C(NCCCC[C@H](NC(=O)OCc1ccccc1)C(=O)O)OCC1c2ccccc2-c2ccccc21` [compound 41], below 1. Same read-out and setting: the same measure for `CCC(C)C(=O)C(=O)N[C@@H](CCCCNC(=N)N)C(=O)O` (some centres unmarked) [compound 21]: below 1; for `NCCCC[C@H](NC(=O)OCc1ccccc1)C(=O)O` [compound 17]: above 1; for `COC(=O)[C@@H](N)CCCCNC(=O)OCc1ccccc1` [compound 24]: above 1. On the same count and under the same terms, under `N[C@H](CCCCNC(=O)OCc1ccccc1)C(=O)O` [compound 13] stands below 1; under `CC(=O)NCCCC[C@H](N)C(=O)O` [compound 8], below 1.

As to `CC(C)(C)OC(=O)N[C@@H](CCCCNC(=O)OC(F)(F)F)C(=O)O` [compound 38], the Activity level is reported as above 1. On the same count and under the same terms, under `CC(C)(C)OC(=O)NCCCC[C@H](NC(=O)OCc1ccccc1)C(=O)O` [compound 32] stands above 1; under `CC(C)(C)OC(=O)[C@@H](N)CCCCNC(=O)OCc1ccccc1` [compound 25], 1; under `O=C(NCCCC[C@H](NC(=O)c1ccccc1)C(=O)O)c1ccccc1` [compound 30], below 1. Still for that read-out and setting: the same measure for `NCCCC[C@H](NC(=O)OCc1ccccc1)C(=O)OCc1ccccc1` [compound 23]: below 1. Still for that read-out and setting: the same measure for `O=C(O)[C@H](CCCCN1C(=O)c2ccccc2C1=O)N1C(=O)c2ccccc2C1=O` [compound 45]: above 1; for `N[C@@H](CCCCNC(=O)OCc1ccccc1)C(=O)O` [compound 11]: 1; for `NCCCC[C@H](NC(=O)/C=C/c1ccccc1)C(=O)O` [compound 16]: below 1. With `COC(=O)[C@@H](N)CCCCN` [compound 7], the Activity level was 1. For the molecule `O=C(NCCC[C@H](NC(=O)c1ccccc1)C(=O)O)c1ccccc1` [compound 6], the Activity level is on record as above 1. Same read-out and setting: under `Cn1c(=O)n(CCCC[C@H](NC(=O)c2c(Cl)cccc2Cl)C(=O)O)c(=O)c2ccccc21` [compound 46] stands above 1; under `CC(C)(C)OC(=O)N[C@@H](CCCCNC(=O)OCc1ccccc1)C(=O)O` [compound 31], above 1. Same read-out and setting: the same measure for `CC(C)(C)OC(=O)NCCCC[C@H](N)C(=O)O` [compound 12]: above 1. For the molecule `CC(C)(C)OC(=O)NCCCC[C@H](NC(=O)OCC1c2ccccc2-c2ccccc21)C(=O)O` [compound 39], the Activity level is below 1.

In a further experiment the test system is RD29A, RD29B, MAPKKK18, ABF3F and SLAC1 genes. The experiment is described as follows: Induction of expression of environmental stress tolerance (ABA-responsive) genes, real-time PCR, relative to GAPDH. It is filed as in vivo, Arabidopsis thaliana. The settings on record: RD29B expression; amino acid in combination with ABA. How it is done:
as §1
MAPKKK18 is a gene encoding a kinase (MAPKKK18, MITOGEN-ACTIVATED PROTEIN KINASE KINASE KINASE 18) that functions in the ABA signaling pathway of Arabidopsis thaliana (Zelicourt A. et al., Trends in Plant Science 21: (2016)). RD29A and RD29B are genes encoding hydrophilic proteins (RESPONSIVE TO DESICCATION 29A, RESPONSIVE TO DESICCATION 29B) that are responsive for ABA and environmental stress such as drought stress and salinity stress and considered to be involved in stress tolerance and senescence suppression (Yang S. D. et al., Plant Cell 6: 2155-2168 (2011)). ABF3 is a gene encoding a transcription factor (ABA-responsive element-binding protein) that regulates expression of ABA-responsive genes (Yoshida T. et al., Plant, cell and Environment 38: 35-49 (2015)). SLAC1 is a gene encoding an anion channel involved in stomatal closure (Yoshida et al., J Plant Res (2016) 129:39-49). GAPDH is a glyceraldehyde-3-phosphate dehydrogenase gene and was selected as an internal standard.
The expression levels of the genes were calculated as relative expression levels to the GAPDH gene. Twenty amino acids were divided into 10 each, and the gene expression inducing activity when combined with ABA was evaluated in two tests (n=2).
(§2) The expression levels of the respective genes were calculated as relative expression levels to the GAPDH gene in the same manner as in Example 1.
Separately, Arabidopsis thaliana was treated with a combination of 0.1 mM, 0.25 mM, 1 mM, 2.5 mM, 10 mM, or 25 mM of Lys and 0.25 μM of ABA in the same manner as in Example 1, and expression of MAPKKK18, RD29A, and RD29B genes after 6 hours of treatment was analyzed (n=3). The expression levels of the respective genes were calculated as relative expression levels to the GAPDH gene in the same manner as in Example 1. […]
as §2, §2
As for `N[C@@H](Cc1c[nH]c2ccccc12)C(=O)O` [Trp, tryptophan], the “activity of synergistically enhancing the effect of ABA” value is reported as “synergistically enhance the effect of ABA”. Same read-out and setting: under `CC(C)[C@H](N)C(=O)O` [Val, valine] stands “synergistically enhance the effect of ABA”.

The experiment is the same for the next values; noted with them: amino acid alone or combination with ABA, 6 hours, n=3.
As to `CC(C)[C@H](N)C(=O)O` [Val, valine], the “activity to induce expression of the environmental stress tolerance gene RD29B” value is listed as “No activity”.

The next experiment shares this test system. The description is as above. The experiment is classed as in vivo, Arabidopsis thaliana. The settings on record: amino acid alone or combination with ABA, 6 hours, n=3.
On to `N[C@@H](Cc1c[nH]c2ccccc12)C(=O)O` [Trp, tryptophan], for which the “activity to induce expression of the environmental stress tolerance gene RD29B” value is “No activity”.
